Data on 47 molecules can be found in ChEMBL document CHEMBL1201862, “PubChem BioAssay data set” (2004).

The structures appear in SMILES notation. Calls of active or inactive are those of the source.

In general, AC50 refers to the midpoint of the concentration-response curve, whichever way the signal moves. The term EC50 denotes the concentration giving half of the maximal effect.

For one data set, the target named is Cytochrome P450 2D6 (Homo sapiens, UniProt P10635).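 Further: CYP2D6 member of a cytochrome P450 panel assay.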
Sequence of Cytochrome P450 2D6 (P10635 whole entry): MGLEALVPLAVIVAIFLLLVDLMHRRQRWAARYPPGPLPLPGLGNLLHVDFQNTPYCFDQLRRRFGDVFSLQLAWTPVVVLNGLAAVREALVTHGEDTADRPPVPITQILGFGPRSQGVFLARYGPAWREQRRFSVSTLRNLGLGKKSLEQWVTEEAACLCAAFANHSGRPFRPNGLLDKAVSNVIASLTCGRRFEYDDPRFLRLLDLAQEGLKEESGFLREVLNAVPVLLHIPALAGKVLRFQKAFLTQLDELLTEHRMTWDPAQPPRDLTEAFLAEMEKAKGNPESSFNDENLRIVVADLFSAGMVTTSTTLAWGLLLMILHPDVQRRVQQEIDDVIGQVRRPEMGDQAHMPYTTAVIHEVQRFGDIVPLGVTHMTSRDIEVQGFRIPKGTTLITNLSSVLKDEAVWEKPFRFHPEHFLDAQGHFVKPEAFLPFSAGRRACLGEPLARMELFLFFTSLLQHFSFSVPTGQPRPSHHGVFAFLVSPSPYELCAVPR
A further data set deals with Cytochrome P450 2C9 (Homo sapiens, UniProt P11712).
Sequence of Cytochrome P450 2C9 (P11712 whole entry): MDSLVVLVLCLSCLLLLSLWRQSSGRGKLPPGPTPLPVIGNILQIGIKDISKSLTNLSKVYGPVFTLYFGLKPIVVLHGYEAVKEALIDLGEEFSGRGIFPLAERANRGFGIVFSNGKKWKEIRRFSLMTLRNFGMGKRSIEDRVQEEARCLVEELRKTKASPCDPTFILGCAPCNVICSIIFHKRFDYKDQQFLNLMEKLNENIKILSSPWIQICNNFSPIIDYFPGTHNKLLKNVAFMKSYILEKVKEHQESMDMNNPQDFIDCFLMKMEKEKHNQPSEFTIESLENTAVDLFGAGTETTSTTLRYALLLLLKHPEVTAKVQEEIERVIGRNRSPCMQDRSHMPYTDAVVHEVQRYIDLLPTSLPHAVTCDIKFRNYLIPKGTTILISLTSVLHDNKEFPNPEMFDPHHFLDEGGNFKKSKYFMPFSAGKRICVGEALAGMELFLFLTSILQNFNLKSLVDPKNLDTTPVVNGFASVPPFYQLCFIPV
For another data set, the target named is Cytochrome P450 2C19 (Homo sapiens, UniProt P33261). In words: Cytochrome panel assay with activity outcomes. Panel member name: p450-cyp2c19 Compounds with AC50 equal or less than 10 uM are considered active. It counts as functional.
Sequence of Cytochrome P450 2C19 (P33261 whole entry): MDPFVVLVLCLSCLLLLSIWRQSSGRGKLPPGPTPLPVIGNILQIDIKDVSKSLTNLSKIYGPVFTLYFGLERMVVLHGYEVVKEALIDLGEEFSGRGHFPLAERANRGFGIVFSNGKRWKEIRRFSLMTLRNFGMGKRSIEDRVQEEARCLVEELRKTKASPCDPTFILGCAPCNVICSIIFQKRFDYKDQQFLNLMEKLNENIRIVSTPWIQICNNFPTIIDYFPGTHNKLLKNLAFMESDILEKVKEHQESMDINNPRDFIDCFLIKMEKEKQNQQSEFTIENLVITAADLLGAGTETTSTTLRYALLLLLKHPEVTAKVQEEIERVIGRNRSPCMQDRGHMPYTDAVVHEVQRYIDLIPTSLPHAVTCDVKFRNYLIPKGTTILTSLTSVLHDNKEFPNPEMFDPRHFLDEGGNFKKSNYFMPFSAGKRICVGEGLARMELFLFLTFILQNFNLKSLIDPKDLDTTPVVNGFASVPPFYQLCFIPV
A further data set addresses T1, Cytochrome P450 1A2 (Homo sapiens, UniProt P05177).
T1 sequence (P05177 whole entry): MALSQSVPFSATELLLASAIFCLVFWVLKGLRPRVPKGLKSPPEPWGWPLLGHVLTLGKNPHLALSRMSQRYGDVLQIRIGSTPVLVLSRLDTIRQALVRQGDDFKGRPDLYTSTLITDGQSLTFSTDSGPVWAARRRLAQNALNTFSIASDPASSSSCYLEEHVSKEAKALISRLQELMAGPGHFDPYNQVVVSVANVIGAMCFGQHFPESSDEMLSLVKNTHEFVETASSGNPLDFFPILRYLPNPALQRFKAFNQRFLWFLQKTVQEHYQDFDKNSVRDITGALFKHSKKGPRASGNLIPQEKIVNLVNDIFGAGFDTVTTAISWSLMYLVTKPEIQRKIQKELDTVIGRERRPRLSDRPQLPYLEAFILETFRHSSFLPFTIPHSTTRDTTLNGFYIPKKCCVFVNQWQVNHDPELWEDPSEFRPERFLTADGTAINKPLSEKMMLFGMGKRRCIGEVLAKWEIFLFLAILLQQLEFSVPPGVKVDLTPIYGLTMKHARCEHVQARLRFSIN

The nature of data set [1]: Luminescence Cell-Based Dose Retest to Confirm Inhibitors of Cancer Stem Cells. [Related pubchem assays (depositor defined):AID2717, AID2721]. The class given is functional. As to conditions: Homo sapiens.
Data set [2] in a line: Luminescence Cell-Based Dose Response HTS to Identify Activators of Luciferase Translation or Activity in H4 […] Cells. [Related pubchem assays: 1829 (Project Summary), 1814 (Primary HTS)]. The class given is functional.
The next data set has as its system H4. Description: Luminescence Cell-Based Dose Response HTS to Identify Activators of 5'UTR Stem-Loop Driven Prion Protein mRNA Translation in H4 Neuroglioblastoma Cells. [Related pubchem assays: 1829 (Project Summary), 1814 (Primary HTS)]. As to conditions: Homo sapiens. The class given is functional.

As to `Cc1cc(F)ccc1S(=O)(=O)Nc1ccccc1C(=O)Nc1ccccc1N1CCOCC1`, the AC50 on Cytochrome P450 2D6 was 15.8 µM (inconclusive).
For the molecule `c1ccc(C(c2ccccc2)N2CCC3(CCNCC3)CC2)cc1`, the AC50 at Cytochrome P450 2C9 is 31.6 µM (inconclusive).
With `CCc1ccccc1NC(=O)c1ccc(F)c(S(=O)(=O)N2CCC(C(N)=O)CC2)c1`, the AC50 was 25.1 µM (inconclusive) at Cytochrome P450 2C9 and 31.6 µM (inconclusive) at Cytochrome P450 2C19 (read-out: AC50).
Regarding `c1ccc(-c2nnn(CCN3CCCCC3)n2)cc1`, the AC50 was 5.01 µM (inconclusive) at Cytochrome P450 1A2 and 3.16 µM (inconclusive) on Cytochrome P450 2D6.
Consider `O=C(CCn1nc(-c2ccc(Cl)cc2)ccc1=O)NCc1ccccn1`, for which the AC50 on Cytochrome P450 2C9 was 5.01 µM (inconclusive); at Cytochrome P450 1A2 it was 15.8 µM (inconclusive).
As to `O=C(CN1CCCCC1)Nc1ccc(Br)cc1C(=O)c1ccccc1Cl`, the AC50 on Cytochrome P450 2D6 is 11.2 µM (inconclusive).
Consider `Nc1nc(Nc2ccccc2)nc2c1ncn2[C@@H]1O[C@@H](CO)[C@H](O)[C@H]1O`, for which the AC50 at Cytochrome P450 1A2 is 39.8 µM (inconclusive).
As to `COCCn1c(=O)c(CCc2ccccc2)nc2cnc(N(C)C)nc21`, the AC50 at Cytochrome P450 2C9 is 25.1 µM (inconclusive); on Cytochrome P450 2D6 it was 10 µM (inconclusive).
For the molecule `O=C1CSC(c2ccccn2)N1c1ccc(Cl)c(Cl)c1` (stereo unspecified), the AC50 on Cytochrome P450 2C9 is 20 µM (inconclusive).
As for `Clc1ccc([C@@H](OCCN2CCCCC2)c2ccccc2)cc1`, the AC50 was 12.6 µM (inconclusive) at Cytochrome P450 1A2 and 6.31 µM (inconclusive) at Cytochrome P450 2C19 (read-out: AC50).
With `Cc1ccc(C2NC(c3ccc(C)cc3)C(C)C(=NO)C2C)cc1` (stereo unspecified), on Cytochrome P450 1A2, the AC50 was 15.8 µM (inconclusive).
For the molecule `COc1ncc2nc(-c3cccs3)c(=O)n(CCc3ccccc3)c2n1`, the AC50 on Cytochrome P450 2C19 (read-out: AC50) is 2.51 µM (inconclusive).
In the case of `CCOC(=O)c1[nH]c(C)c(C(=O)OCC(=O)N2c3ccccc3CC2C)c1C` (stereo unspecified), the AC50 at Cytochrome P450 1A2 is 12.6 µM (inconclusive).
Regarding `CCc1c(C)nc2ccc(Br)cc2c1Cl`, the AC50 on Cytochrome P450 2C9 is 11.2 µM (inconclusive).
For `CCCc1cc(COC)c(C#N)c(O)n1`, the AC50 on Cytochrome P450 1A2 is 6.31 µM (inconclusive).
For the molecule `O=C(c1cc(O)nc2ccc(Br)cc12)N1CCC2(CC1)OCCO2`, the AC50 at Cytochrome P450 2C9 was 39.8 µM (inconclusive); at Cytochrome P450 2C19 (read-out: AC50), 28.2 µM (inconclusive).
As for `N#CCCn1c(=O)c(-c2ccc(Cl)cc2)nc2cnc(Oc3ccccc3)nc21`, the AC50 on Cytochrome P450 1A2 was 0.501 µM (inconclusive).
For `C[C@H]1[C@H](C)CC[C@]2(C)CC[C@]3(C)C(=CC(=O)C4[C@@]5(C)CC[C@H](O)C(C)(C)C5CC[C@]43C)[C@H]12` (stereo partly specified), the AC50 in data set [1] is 4.76 µM (active).
For the molecule `CN(Cc1ccco1)c1ncncc1-c1cccc(NS(C)(=O)=O)c1`, the AC50 was 0.501 µM (inconclusive) on Cytochrome P450 2C9 and 20 µM (inconclusive) on Cytochrome P450 2D6.
Consider `CCCCSc1ncc(C(=O)OCC)c(N)n1`, for which the EC50 in data set [2] was 0.125 µM (active).
With `Cc1noc(C)c1C(=O)N1CCC2(CCCN(CC(C)C)C2)CC1`, the AC50 on Cytochrome P450 2C9 and at Cytochrome P450 2C19 (read-out: AC50) was 39.8 µM (inconclusive) each time.
On to `Cc1ccc(S[C@@H](CCN2CC[C@H](C(C)(C)C)CCC2=O)c2ccccc2)cc1`, for which the AC50 in data set [1] was 2.64 µM (active).
For the molecule `COc1ccccc1-c1cncnc1Nc1ccc(F)cc1`, the AC50 on Cytochrome P450 2D6 is 15.8 µM (inconclusive).
Take `COC(=O)[C@@]1(Cc2ccc(OC)cc2)[C@H]2c3cc(C(=O)N(C)C)[nH]c3C[C@H]2CN1C(=O)c1ccccc1`: at Cytochrome P450 1A2, the AC50 was 20 µM (inconclusive).
As for `O=c1c(-c2cc(F)cc(F)c2)nc2cnc(N3CCNCC3)nc2n1C1CC1`, at Cytochrome P450 2C19 (read-out: AC50), the AC50 was 20 µM (inconclusive).
For the molecule `Cc1c(Br)c([N+](=O)[O-])nn1CC(=O)NCc1cccs1`, the AC50 on Cytochrome P450 1A2 is 14.1 µM (inconclusive); on Cytochrome P450 2D6, 5.01 µM (inconclusive); at Cytochrome P450 2C19 (read-out: AC50), 5.01 µM (inconclusive).
`COCCn1c(=O)c(-c2cn(C)c3ccccc23)nc2cnc(Oc3ccccc3)nc21`: on Cytochrome P450 1A2, the AC50 was 10 µM (inconclusive).
With `Cc1ccc(-n2c(CCC(=O)O)ccc2-c2cccs2)cc1C`, on Cytochrome P450 2C9, the AC50 was 7.08 µM (inconclusive).
`O=c1c(-c2ccc(F)c(F)c2)nc2cncnc2n1Cc1ccccc1`: at Cytochrome P450 2C19 (read-out: AC50), the AC50 is 0.0501 µM (inconclusive).
As for `c1cnc(Nc2nc(-c3ccc4ccccc4c3)cs2)nc1`, the AC50 entry on Cytochrome P450 2C19 was “inconclusive”.
With `O=C1N(c2ccccc2)c2ccccc2C1(Cc1ccncc1)Cc1ccncc1` [LINOPIRDINE], the AC50 on Cytochrome P450 1A2 was 31.6 µM (inconclusive).
In the case of `CC(C)(C)c1c2c(c(C(C)(C)C)c3c1OCN(Cc1ccccc1)C3)OCN(Cc1ccccc1)C2`, the AC50 result at Cytochrome P450 2C19 is “inconclusive”.
Regarding `N=C(N)C(/N=N\c1ccccc1)C(=N)N` (stereo unspecified), the AC50 on Cytochrome P450 1A2 was 5.01 µM (inconclusive).
Turning to `CNC(C)c1cc(OC)ccc1OC` (stereo unspecified), at Cytochrome P450 2D6, the AC50 is 25.1 µM (inconclusive).
In the case of `O=C(O)c1ccccc1/C=N\N=C1c2ccccc2-c2ccccc21`, the AC50 on Cytochrome P450 2C9 is 7.94 µM (inconclusive).
`Cc1cccn2c(/C=N/OCc3ccc(F)cc3)c(-c3ccc(Cl)cc3)nc12`: the AC50 at Cytochrome P450 2C19 (read-out: AC50) was 3.16 µM (inconclusive).
For the molecule `CC(C)OC(=O)C(C#N)c1nc2ccccc2nc1N1CCN(Cc2ccccc2)CC1` (stereo unspecified), at Cytochrome P450 2D6, the half-maximal activity concentration (AC50) is 0.112 µM (inconclusive).
As to `CCOc1ccc(NC(=O)CN2CCN(S(=O)(=O)c3ccc(Cl)cc3)CC2)cc1`, the half-maximal activity concentration (AC50) at Cytochrome P450 2C9 was 2 µM (inconclusive); at Cytochrome P450 2C19 (read-out: AC50) it was 0.562 µM (inconclusive).
With `O=C(CSCc1cccc(Cl)c1)Nc1ccccc1-c1ccccc1`, the AC50 in data set [1] was 21.7 µM (active).
On to `COc1ccc2cc3cc(C(=O)Nc4ccc5c(c4)OCO5)oc3nc2c1`, for which the AC50 at Cytochrome P450 2C9 is 5.01 µM (inconclusive).
Regarding `N#CCCn1c(=O)c(-c2cccc(C#N)c2)nc2cnc(Oc3ccccc3)nc21`, the figures for the AC50 at Cytochrome P450 2C9 and on Cytochrome P450 1A2 were 39.8 µM (inconclusive) and 20 µM (inconclusive), respectively.
`O=C(CSc1nnc(-c2ccccn2)o1)Nc1cccc(Cl)c1`: the EC50 is 4.83 µM (active) in data set [2] and > 120 µM (not active) in the data set on H4.
As to `COc1ccc(CCNC(=O)CCN2C(=O)C(C)Oc3ccc(C)cc32)cc1OC` (stereo unspecified), the AC50 on Cytochrome P450 2C9 was 5.62 µM (inconclusive).
On to `c1ccc(N2CCC3(CCNCC3)CC2)cc1`, for which the AC50 at Cytochrome P450 2D6 is 15.8 µM (inconclusive).
As for `COc1ccccc1CNS(=O)(=O)c1ccc2ncc(C(=O)O)c(O)c2c1`, the AC50 at Cytochrome P450 2C9 is 11.2 µM (inconclusive); at Cytochrome P450 1A2 it was 10 µM (inconclusive).
On to `CC(=O)OC[C@@H]1O[C@@H](O/N=C2/C[C@@H](O)[C@@H](O)[C@@H]3[C@@H]4C(=O)N(C[C@@H]5CCCO5)C(=O)[C@H]4CC[C@H]23)[C@H](OC(C)=O)[C@H](OC(C)=O)[C@@H]1OC(C)=O`, for which, at Cytochrome P450 2D6, the AC50 is 5.01 µM (inconclusive).
For the molecule `N#Cc1cccc(-c2nc3cnc(N4CCOCC4)nc3n(C[C@H]3CCCO3)c2=O)c1`, the AC50 at Cytochrome P450 1A2 is 0.794 µM (inconclusive).
